Results: US20250179073A1, “TRICYCLIC HETEROCYCLE COMPOUNDS AS IAP ANTAGONISTS” (Ascentage Pharma (Suzhou) Co., Ltd., priority 2022, published 2025)

Assays:
MDA-MB-231 cells = assay: Cell proliferation assay (CellTiter-Glo), MDA-MB-231; assay type: cell-based; conditions: Homo sapiens, MDA-MB-231, 72 h, 72 h treatment, Celltiter-Glo luminescence
Summary of the method: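 MDA-MB-231 (RPMI-1640/10% FBS) and EVSA-T (MEM/10% FBS) cells, 10000 cells/well, exposed 72 h to compound at […]. Viability read by CellTiter-Glo luminescence after 15 min at room temperature. IC50 from control-normalised curve fitting.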

EVSA-T cells = assay: Cell proliferation assay (CellTiter-Glo), EVSA-T; assay type: cell-based; conditions: Homo sapiens, EVSA-T, 72 h, 72 h treatment, Celltiter-Glo luminescence
Protocol: Example 238: Cell Proliferation Assay
MDA-MB-231 and EVSA-T cells (10000 cells/well) were plated onto 96-well plates (Corning, Cat #3917) in 95 μL of medium (RPMI-1640 containing 10% FBS and MEM containing 10% FBS, respectively). Compounds with various concentrations ([…]) were added to the wells. After treatment for 72 h, 30 μL of Celltiter-Glo reagent (Promega, Cat #G7573) was added and incubated at room temperature for 15 min, then the luminescent signal was determined using a microplate reader (Biotek, SynergyH1). The inhibitor dose-response curves were analyzed using normalized IC50 regression curve fitting with control based normalization.

SMILES	IC50 (MDA-MB-231 cells)	IC50 (EVSA-T cells)
C[C@@H]1CN(CC(=O)N2CC(C)(C)c3c2cc(Cc2ccc(F)cc2)c2ncc(C#N)n32)[C@@H](CN2CCOC[C@H]2C)CN1 [Compound 111, 4-(4-fluorobenzyl)-8,8-dimethyl-6-(2-((2R,5R)-5-methyl-2-(((R)-3-methylmorpholino)methyl)piperazin-1-yl)acetyl)-7,8-dihydro-6H-imidazo[1,2-a]pyrrolo[2,3-e]pyridine-1-carbonitrile]	42 nM	2 nM
C[C@@H]1CN(CC(=O)N2CC(C)(C)c3c2cc(Cc2ccc(F)cc2)c2nc(C4CC4)nn32)[C@@H](CN2CCOC[C@H]2C)CN1 [Compound 165, 1-(2-cyclopropyl-4-(4-fluorobenzyl)-8,8-dimethyl-7,8-dihydro-6H-pyrrolo[2,3-e][1,2,4]triazolo[1,5-a]pyridin-6-yl)-2-((2R,5R)-5-methyl-2-(((R)-3-methylmorpholino)methyl)piperazin-1-yl)ethan-1-one]	21 nM	4 nM
C[C@@H]1CN(CC(=O)N2CC(C)(C)c3c2cc(Cc2ccc(F)cc2)c2ncnn32)[C@@H](CN2CCOC[C@H]2C)CN1 [Example 14, 1-(4-(4-fluorobenzyl)-8,8-dimethyl-7,8-dihydro-6H-pyrrolo[2,3-e][1,2,4]triazolo[1,5-a]pyridin-6-yl)-2-((2R,5R)-5-methyl-2-(((R)-3-methylmorpholino)methyl)piperazin-1-yl)ethan-1-one]	42 nM	6 nM
C[C@@H]1CN(CC(=O)N2CC(C)(C)c3c2cc(Cc2ccc(F)cc2)c2nc(C(=O)N(C)C)nn32)[C@@H](CN2CCOC[C@H]2C)CN1 [Compound 251, 4-(4-fluorobenzyl)-N,N,8,8-tetramethyl-6-(2-((2R,5R)-5-methyl-2-(((R)-3-methylmorpholino)methyl)piperazin-1-yl)acetyl)-7,8-dihydro-6H-pyrrolo[2,3-e][1,2,4]triazolo[1,5-a]pyridine-2-carboxamide]	130 nM	29.6 nM
C[C@@H]1CN(CC(=O)N2CC(C)(C)c3c2cc(Cc2ccc(F)cc2)c2nc(CF)nn32)[C@@H](CN2CCOC[C@H]2C)CN1 [Compound 144, 1-(4-(4-fluorobenzyl)-2-(fluoromethyl)-8,8-dimethyl-7,8-dihydro-6H-pyrrolo[2,3-e][1,2,4]triazolo[1,5-a]pyridin-6-yl)-2-((2R,5R)-5-methyl-2-(((R)-3-methylmorpholino)methyl)piperazin-1-yl)ethan-1-one]	51 nM	3 nM
C[C@@H]1CN(CC(=O)N2CC(C)(C)c3c2cc(Cc2ccc(F)cc2)c2nncn32)[C@@H](CN2CCOC[C@H]2C)CN1 [Example 9, 1-(4-(4-fluorobenzyl)-8,8-dimethyl-7,8-dihydro-6H-pyrrolo[2,3-e][1,2,4]triazolo[4,3-a]pyridin-6-yl)-2-((2R,5R)-5-methyl-2-(((R)-3-methylmorpholino)methyl)piperazin-1-yl)ethan-1-one]	530 nM	18 nM
C[C@@H]1CN(CC(=O)N2CC(C)(C)c3c2cc(Cc2ccc(F)cc2)c2nn(CC(F)(F)F)c(=O)n32)[C@@H](CN2CCOC[C@H]2C)CN1 [Compound 263, 4-(4-fluorobenzyl)-8,8-dimethyl-6-(2-((2R,5R)-5-methyl-2-(((R)-3-methylmorpholino)methyl)piperazin-1-yl)acetyl)-2-(2,2,2-trifluoroethyl)-2,6,7,8-tetrahydro-1H-pyrrolo[2,3-e][1,2,4]triazolo[4,3-a]pyridin-1-one]	27 nM	8.2 nM
C[C@@H]1CN(CC(=O)N2CC(C)(C)c3c2cc(Cc2ccc(F)cc2)c2ncnn32)[C@@H](CN2Cc3cccc(F)c3C2=O)CN1 [Compound 207, 7-fluoro-2-(((2R,5R)-1-(2-(4-(4-fluorobenzyl)-8,8-dimethyl-7,8-dihydro-6H-pyrrolo[2,3-e][1,2,4]triazolo[1,5-a]pyridin-6-yl)-2-oxoethyl)-5-methylpiperazin-2-yl)methyl)isoindolin-1-one]	20 nM	2 nM
C[C@@H]1CN(CC(=O)N2CC(C)(C)c3c2cc(Cc2ccc(F)cc2)c2nn(C4COC4)c(=O)n32)[C@@H](CN2CCOC[C@H]2C)CN1 [Compound 210, 4-(4-fluorobenzyl)-8,8-dimethyl-6-(2-((2R,5R)-5-methyl-2-(((R)-3-methylmorpholino)methyl)piperazin-1-yl)acetyl)-2-(oxetan-3-yl)-2,6,7,8-tetrahydro-1H-pyrrolo[2,3-e][1,2,4]triazolo[4,3-a]pyridin-1-one]	33 nM	3 nM
COC(=O)N1CCN(CC2CN[C@H](C)CN2CC(=O)N2CC(C)(C)c3c2cc(Cc2ccc(F)cc2)c2ncnn32)[C@H](C)C1 (stereo in doubt) [Compound 223, methyl (R)-4-(((2S,5R)-1-(2-(4-(4-fluorobenzyl)-8,8-dimethyl-7,8-dihydro-6H-pyrrolo[2,3-e][1,2,4]triazolo[1,5-a]pyridin-6-yl)-2-oxoethyl)-5-methylpiperazin-2-yl)methyl)-3-methylpiperazine-1-carboxylate]	77 nM	3 nM
C[C@@H]1CN(CC(=O)N2CC(C)(C)c3c2cc(Cc2ccc(Cl)cc2)c2ncnn32)[C@@H](CN2CCOC[C@H]2C)CN1 [Compound 44, 1-(4-(4-chlorobenzyl)-8,8-dimethyl-7,8-dihydro-6H-pyrrolo[2,3-e][1,2,4]triazolo[1,5-a]pyridin-6-yl)-2-((2R,5R)-5-methyl-2-(((R)-3-methylmorpholino)methyl)piperazin-1-yl)ethan-1-one]	75 nM	9 nM
C[C@@H]1CN(CC(=O)N2CC(C)(C)c3c2cc(Cc2ccc(F)cc2)c2nn(CC(C)(C)O)c(=O)n32)[C@@H](CN2CCOCC23CC3)CN1 [Compound 278, 6-(2-((2R,5R)-2-((7-oxa-4-azaspiro[2.5]octan-4-yl)methyl)-5-methylpiperazin-1-yl)acetyl)-4-(4-fluorobenzyl)-2-(2-hydroxy-2-methylpropyl)-8,8-dimethyl-2,6,7,8-tetrahydro-1H-pyrrolo[2,3-e][1,2,4]triazolo[4,3-a]pyridin-1-one]	39 nM	9.7 nM
COc1nc2c(Cc3ccc(F)cc3)cc3c(n2n1)C(C)(C)CN3C(=O)CN1C[C@@H](C)NC[C@@H]1CN1CCOC[C@H]1C [Compound 126, 1-(4-(4-fluorobenzyl)-2-methoxy-8,8-dimethyl-7,8-dihydro-6H-pyrrolo[2,3-e][1,2,4]triazolo[1,5-a]pyridin-6-yl)-2-((2R,5R)-5-methyl-2-(((R)-3-methylmorpholino)methyl)piperazin-1-yl)ethan-1-one]	20 nM	3 nM
C[C@@H]1CN(CC(=O)N2CC(C)(C)c3c2cc(Cc2ccc(F)cc2)c2nn(CCN(C)C)c(=O)n32)[C@@H](CN2CCOC[C@H]2C)CN1 [Compound 243, 2-(2-(dimethylamino)ethyl)-4-(4-fluorobenzyl)-8,8-dimethyl-6-(2-((2R,5R)-5-methyl-2-(((R)-3-methylmorpholino)methyl)piperazin-1-yl)acetyl)-2,6,7,8-tetrahydro-1H-pyrrolo[2,3-e][1,2,4]triazolo[4,3-a]pyridin-1-one]	95 nM	14.5 nM
C[C@@H]1CN(CC(=O)N2CC(C)(C)c3c2cc(Cc2ccc(F)cc2)c2nn(CC(O)C4CC4)c(=O)n32)[C@@H](CN2CCOC[C@H]2C)CN1 (stereo partly drawn) [Compound 270, 2-(2-cyclopropyl-2-hydroxyethyl)-4-(4-fluorobenzyl)-8,8-dimethyl-6-(2-((2R,5R)-5-methyl-2-(((R)-3-methylmorpholino)methyl)piperazin-1-yl)acetyl)-2,6,7,8-tetrahydro-1H-pyrrolo[2,3-e][1,2,4]triazolo[4,3-a]pyridin-1-one]	51 nM	11.5 nM
C[C@@H]1CN(CC(=O)N2CC(C)(C)c3c2cc(Cc2ccc(F)cc2)c2nn(C[C@H]4COCCO4)c(=O)n32)[C@@H](CN2CCOC[C@H]2C)CN1 [Compound 237, 2-(((S)-1,4-dioxan-2-yl)methyl)-4-(4-fluorobenzyl)-8,8-dim ethyl-6-(2-((2R,5R)-5-methyl-2-(((R)-3-methylmorpholino)methyl)piperazin-1-yl)acetyl)-2,6,7,8-tetrahydro-1H-pyrrolo[2,3-e][1,2,4]triazolo[4,3-a]pyridin-1-one]	46 nM	1.5 nM
C[C@@H]1CN(CC(=O)N2CC(C)(C)c3c2cc(Cc2ccc(F)cc2)c2nn(CC4(O)CC4)c(=O)n32)[C@@H](CN2CCOC[C@H]2C)CN1 [Compound 240, 4-(4-fluorobenzyl)-2-((1-hydroxycyclopropyl)methyl)-8,8-dimethyl-6-(2-((2R,5R)-5-methyl-2-(((R)-3-methylmorpholino)methyl)piperazin-1-yl)acetyl)-2,6,7,8-tetrahydro-1H-pyrrolo[2,3-e][1,2,4]triazolo[4,3-a]pyridin-1-one]	25 nM	5.9 nM
C[C@@H]1CN(CC(=O)N2CC(C)(C)c3c2cc(Cc2ccc(F)cc2)n2ncnc32)[C@@H](CN2CCOC[C@H]2C)CN1 [Example 25, 1-(5-(4-fluorobenzyl)-9,9-dimethyl-8,9-dihydro-7H-pyrrolo[3,2-c][1,2,4]triazolo[1,5-a]pyridin-7-yl)-2-((2R,5R)-5-methyl-2-(((R)-3-methylmorpholino)methyl)piperazin-1-yl)ethan-1-one]	84 nM	11 nM
